According to ChEMBL document CHEMBL3758090, “Investigation of α-conotoxin unbinding using umbrella sampling” (Bioorg Med Chem Lett, 2016):
Positions of bridges follow the written chain, without caps; N, C: chain ends. Residues, ends and D or L forms follow the SMILES beside them.

Biological target: T1, Soluble acetylcholine receptor (Aplysia californica, UniProt Q8WSF8)
T1 sequence (Q8WSF8 whole entry): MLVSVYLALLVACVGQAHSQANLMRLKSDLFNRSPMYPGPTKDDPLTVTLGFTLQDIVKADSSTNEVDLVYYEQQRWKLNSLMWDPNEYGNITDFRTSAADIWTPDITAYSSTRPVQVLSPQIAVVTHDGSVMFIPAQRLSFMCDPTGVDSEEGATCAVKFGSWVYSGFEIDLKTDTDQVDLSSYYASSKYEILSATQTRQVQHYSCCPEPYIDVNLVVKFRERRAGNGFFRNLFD
Experiment: Displacement [125I]alpha-bungarotoxin from untagged Aplysia californica AChBP expressed in Sf9 cells by competitive binding assay

CC(C)C[C@@H]1NC(=O)[C@H](C)NC(=O)[C@@H]2CSSC[C@H](NC(=O)CN)C(=O)N[C@@H](CSSC[C@@H](C(=O)O)NC(=O)[C@H](Cc3ccc(O)cc3)NC(=O)[C@H](CCCCN)NC(=O)[C@@H]3CCCN3C(=O)[C@H](CC(N)=O)NC(=O)[C@H](CC(N)=O)NC1=O)C(=O)N[C@@H](CO)C(=O)N[C@@H](CC(C)C)C(=O)N1CCC[C@H]1C(=O)N1CCC[C@H]1C(=O)N2 (H-GCCSLPPCALNNPKYC-OH; disulfide 2-8, 3-16)
IC50: 28 nM
